What all share (format): in vivo
The test system of assay [1] is cotton aphid (Aphis gossypii). Nature of the assay: Insecticidal test for cotton aphid (spray on infested squash cotyledons). The following applies: 50 ppm spray, all life stages, 3 days, rating of % Control. As for the experimental part:
Insecticidal test for cotton aphid (Aphis gossypii)
To prepare spray solutions, 1 mg of each test compound was dissolved into 1 mL of a 90:10 acetone:ethanol solvent. This 1 mL of chemical solution was added to 19 mL of water containing 0.05% Tween 20 surfactant to produce a 50 ppm spray solution.
Squash cotyledons were infested with cotton aphid (all life stages)16-20 hours prior to application of spray solution. The solution was sprayed on both sides of each infested squash cotyledon (0.5 mL x 2 each side) with a sweeping action until runoff. The plants were allowed to air dry and held for 3 days in a controlled room at 26 °C and 40% RH after which time the test was graded. Grading was by actual count using a dissecting microscope and comparison of test counts to the untreated check.

For assay [2], the system named is two-spotted spider mite (Tetranychus urticae). Put plainly: Insecticidal test for two-spotted spider mite, ovicide method. As to conditions: Tetranychus urticae, foliar, 144 h; ovicide method, cotton leaf discs, 6 days; rating of % Control; read-out: SM, activity against two-spotted spider mite. Here is the method:
Insecticidal test for two-spotted spider mite (Tetranychus urticae)
Ten adult female two-spotted spider mites were placed on eight 2.2 cm leaf discs of cotton leaf, allowed to oviposit over 24 hours, and thereafter removed. […] Discs were placed on an agar substrate and held at 24 °C and 90% RH for 6 days.

The subject of assay [3] is beet armyworm (Spodoptera exigua). Nature of the assay: Insecticidal test for beet armyworm (treated lepidopteran diet). As to conditions: Spodoptera exigua, 120 h, 2nd instar larvae, 5 days, rating of % Control, read-out: BAW, activity at 400 ppm against beet armyworm.
Assay [4] concerns cabbage looper (Trichoplusia ni). Put plainly: Insecticidal test for cabbage looper (leaf-dip, cabbage leaf discs). As to conditions: Trichoplusia ni, foliar, 120 h, dipped cabbage leaf discs, 2nd instar larvae, 5 days, rating of % Control, read-out: CL, activity at 400 ppm against cabbage looper.
The test system of assay [5] is Sweetpotato Whitefly (Bemisia tabacia). Nature of the assay: Insecticidal test for sweetpotato whitefly (spray on cotton plants). The following applies: Bemisia, 312 h, 200 ppm spray, large nymphs counted after 13 days, rating of % Control, read-out: WF, activity at 200 ppm against whitefly. Here is the method: Insecticidal test for Sweetpotato Whitefly (Bemisia tabacia)
Four mg of each test compound were dissolved by adding 4 mL of a 90:10 acetone:ethanol solvent mixture to the vial containing the sample compound. This solution was added to 16 mL of water containing 0.05% Tween 20 surfactant to produce 20 mL of a 200 ppm spray solution.
Five-week-old cotton plants reared in a greenhouse were stripped of all foliage except for the two uppermost true leaves that were greater than 5 cm in diameter. These plants were then placed into a laboratory colony of whiteflies for two days for oviposition by the colony females. All whiteflies were then removed from the test plants with pressurized air. The spray solution was then applied to the test plants with a hand-held syringe fitted with hollow cone nozzle. One mL spray solution was applied to each leaf top and bottom for a total of 4 mL per plant. Four replications of each test compound utilized a total of 16 mL spray solution. Plants were air dried and then placed in a holding chamber (28 °C and 60% RH) for 13 days. Compound efficacy was evaluated by counting, under an illuminated magnifying glass, the number of large nymphs (3rd-4th instar) per leaf
Percent control based on reduction of large nymphs of a test compound compared to solution-only (no test compound) sprayed plants is reported in Table 1-8.

Assay [6] deals with tobacco budworm (Heliothis virescens). Put plainly: Insecticidal test for tobacco budworm (leaf-dip, cotton cotyledon discs). The following applies: Heliothis virescens, 120 h, dipped cotton cotyledon discs, 2nd instar larvae, 5 days, rating of % Control, read-out: TBW, activity at 400 ppm against tobacco budworm.

For the molecule `C[C@@H]1OC(c2c(F)cccc2F)=N[C@@H]1c1ccc(Br)cc1` (mixture of isomers) [Compound 2, (4R,5S)- and (4S,5R)-4-(4-bromophenyl)-2-(2,6-difluorophenyl)-5-methyl-4,5-dihydro-1,3-oxazole], the “CA, activity at 50 ppm against cotton aphid” value (from here on “CA, activity at 50 ppm”) in assay [1] is on record as “A (90-100)”. Besides, the pest or weed control in assay [2] lay within 90 to 100%. The pest or weed control at 400 ppm in assay [3] and in assay [4] was < 50% each time. Moreover, the pest or weed control at 200 ppm in assay [5] is 90 to 100%.

As to `C[C@H]1OC(c2c(F)cccc2F)=N[C@H]1c1ccc(-c2ccc(OC(F)(F)F)cc2)cc1` (mixture of isomers) [Compound 6, (4S,5R)- and (4R,5S)-2-(2,6-difluorophenyl)-4-(4'-trifluoromethoxy-1,1'-biphenyl-4-yl)-5-methyl-4,5-dihydro-1,3-oxazole], the “CA, activity at 50 ppm” value in assay [1] is “A (90-100)”. Besides, the pest or weed control in assay [2] is 90 to 100%. Also, the pest or weed control at 400 ppm in assay [3], in assay [4] and in assay [6] was 90 to 100% throughout. Further, the pest or weed control at 200 ppm in assay [5] was 80 to 89%.

On to `C[C@@H]1OC(c2c(F)cccc2Cl)=N[C@@H]1c1ccc(Br)cc1` (mixture of isomers) [Compound 3, (4R,5S)- and (4S,5R)-4-(4-bromophenyl)-2-(2-chloro-6-fluorophenyl)-5-methyl-4,5-dihydro-1,3-oxazole], for which the “CA, activity at 50 ppm” value in assay [1] is “B (80-89)”. Further, the pest or weed control in assay [2] was 90 to 100%. Also, the pest or weed control at 400 ppm in assay [4] was in the range of 90 to 100%. Besides, the pest or weed control at 200 ppm in assay [5] is 90 to 100%.
